Assay results taken from US5936065A, “CS-1 peptidomimetics, compositions and methods of using the same” (Cytel Corporation, priority 1995, dated 1999).
Square brackets hold non-standard residues; d marks the D form. Peptide text beside a SMILES is read from it. * marks the point of attachment. Cya = N[C@@H](CS(=O)(=O)O)C(=O)O; NMeF = CN[C@@H](Cc1ccccc1)C(=O)O; Cha = N[C@@H](CC1CCCCC1)C(=O)O; NMeD = CN[C@@H](CC(=O)O)C(=O)O; Phg = N[C@H](C(=O)O)c1ccccc1; X8 = CCCCCCCCCCCCCCCCCCO*; Piperidide = C1CCN(*)CC1; X7 = O=C(CO*)OCc1ccccc1; PhAc = O=C(Cc1ccccc1)*; X1 = CCCCCCCCCCCCCCO*; X4 = CCN(CC)C(=O)CO*; Bz = O=C(c1ccccc1)*; X5 = CCCCCCCCCCCCO*

target: T1, VLA-4 receptor (Homo sapiens, UniProt P05556+P13612); test: In vitro binding assay: inhibition of binding of 51Cr-labeled Jurkat cells to solid phase-bound CS-1 compound (SEQ ID NO:1); assay type: cell-based; details: binding inhibition potency (IC50) normalized to standard compound of SEQ ID NO:3 = 1; multiple assays averaged; about one-tenth or less assigned zero
T1 construct: inflammatory cells that contain the VLA-4 receptor [Jurkat cells; host or cells: Jurkat cells (human T lymphoblastic line)
Description: Binding inhibition is measured here as a concentration of compound that inhibits one-half the binding between a standard number of Jurkat cells and a standard amount of CS-1 compound bound to the surface of a microtiter plate well. Those concentrations are conveniently expressed as IC50 values, smaller numbers indicating a lower concentration required to inhibit 50 percent binding and therefore greater potency. Further specifics of this assay are provided hereinafter.
Jurkat cells (ATCC TIB 152), a human T lymphoblastic line, labeled with ^51 chromium were used to assay in vitro binding inhibition provided by various compounds discussed herein.
The plates were prepared as follows: The 25-mer CS-1 compound (SEQ ID NO:1) dissolved at 0.5-1 μg/ml in a buffer of 0.1M NaHCO3 at pH 9.5 that also contained 10 μg/ml of bovine serum albumin (BSA) or a conjugate of the CS-1 compound linked to ovalbumin (CS-1-OVA) dissolved at 1-2.5 μg/ml in the same buffer was used as the substrate. Each well of the microtiter plates was coated with 50 μl of substrate or buffer alone for controls. The wells were permitted to dry out completely and were then rinsed twice with PBS at pH 7.4. Non-specific binding sites of each well were then blocked using 200 μl per well of RPMI/1 percent BSA for two hours at room temperature.
Jurkat cells (3-5×10^6 cells) were placed into a 15 ml Falcon™ round-bottom tube with a cap. The tube was centrifuged, and the extra medium was then removed.
Two hundred microliters of a ^51 Cr labeling solution were added to the centrifuged cells and maintained in contact with the cells for 90-120 minutes in a warm room. […] Longer contact times provide a greater amount of labeling but lower cell viability.
The labeled cells are washed with (i) complete medium, (ii) 1 mM EDTA/PBS and then (iii) RPM1/1 percent BSA free of serum components. The cells are centrifuged after each washing. The cells are finally resuspended in serum-free RPMI/1 percent BSA at a concentration of 1×10^6 viable cells/ml, which provides a concentration that is diluted by one-half in the assay.
Inhibitor compounds are prepared as stock solutions at 20 mg/ml in DMSO in 1.5 ml cryogenic screwcap vials, and were stored at -70° C. Using Flow™ round-bottom or V-bottom microtiter plates, the inhibitor compounds were prepared at twice the assay concentration in RPMI/1 percent BSA at 60 μl/well.
Four initial dilutions were typically used.
The ^51 Cr-labeled cells ([…] at 60 μl/well) were then admixed with the diluted compound solutions. The admixtures were maintained at room temperature (about 22° C.) for 30 minutes.
One hundred microliters of each inhibitor compound/cell admixture were transferred to the substrate-coated wells. This was done in triplicate for each dilution. The resulting plates were incubated for 30 minutes at 37° C. and then washed gently three times with RPMI/1 percent BSA at 200 μl/well. Binding was observed microscopically, particularly after the second wash.
The bound cells were then lysed by the addition of a 0.5 percent solution of sodium dodecylsulfate in water at 100 μl/well. The resulting solutions were then processed for counting and calculation of IC50 values following usual procedures.
The data of Table 1 are normalized to the binding of SEQ ID NO:3. […] Multiple assays for the same compound were averaged.

T1 sequence (P13612 34-1032): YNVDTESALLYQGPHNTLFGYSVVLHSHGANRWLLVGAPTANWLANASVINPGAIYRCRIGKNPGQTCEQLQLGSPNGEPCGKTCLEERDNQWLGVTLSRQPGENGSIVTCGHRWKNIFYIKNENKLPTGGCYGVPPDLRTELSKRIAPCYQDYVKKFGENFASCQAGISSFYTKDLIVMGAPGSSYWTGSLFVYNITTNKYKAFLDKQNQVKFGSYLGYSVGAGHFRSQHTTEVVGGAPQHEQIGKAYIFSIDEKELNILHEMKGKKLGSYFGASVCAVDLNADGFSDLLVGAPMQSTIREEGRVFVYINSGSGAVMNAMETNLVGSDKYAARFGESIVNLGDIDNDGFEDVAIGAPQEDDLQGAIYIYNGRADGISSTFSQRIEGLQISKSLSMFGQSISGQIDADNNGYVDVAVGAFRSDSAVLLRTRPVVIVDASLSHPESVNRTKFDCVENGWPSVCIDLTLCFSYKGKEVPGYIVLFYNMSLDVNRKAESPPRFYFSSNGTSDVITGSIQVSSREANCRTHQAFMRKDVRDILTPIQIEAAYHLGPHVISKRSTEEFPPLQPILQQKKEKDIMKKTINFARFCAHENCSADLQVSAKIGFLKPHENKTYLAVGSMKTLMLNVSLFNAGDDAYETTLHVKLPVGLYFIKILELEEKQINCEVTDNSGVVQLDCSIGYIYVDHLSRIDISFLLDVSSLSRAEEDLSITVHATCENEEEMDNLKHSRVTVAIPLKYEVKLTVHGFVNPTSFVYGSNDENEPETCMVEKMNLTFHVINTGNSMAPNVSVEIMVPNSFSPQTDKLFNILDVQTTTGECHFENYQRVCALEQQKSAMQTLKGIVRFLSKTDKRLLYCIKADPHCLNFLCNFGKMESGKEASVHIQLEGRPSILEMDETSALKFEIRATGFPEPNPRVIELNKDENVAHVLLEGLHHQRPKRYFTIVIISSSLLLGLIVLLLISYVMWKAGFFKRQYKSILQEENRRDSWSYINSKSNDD
T1 sequence (P05556 21-798): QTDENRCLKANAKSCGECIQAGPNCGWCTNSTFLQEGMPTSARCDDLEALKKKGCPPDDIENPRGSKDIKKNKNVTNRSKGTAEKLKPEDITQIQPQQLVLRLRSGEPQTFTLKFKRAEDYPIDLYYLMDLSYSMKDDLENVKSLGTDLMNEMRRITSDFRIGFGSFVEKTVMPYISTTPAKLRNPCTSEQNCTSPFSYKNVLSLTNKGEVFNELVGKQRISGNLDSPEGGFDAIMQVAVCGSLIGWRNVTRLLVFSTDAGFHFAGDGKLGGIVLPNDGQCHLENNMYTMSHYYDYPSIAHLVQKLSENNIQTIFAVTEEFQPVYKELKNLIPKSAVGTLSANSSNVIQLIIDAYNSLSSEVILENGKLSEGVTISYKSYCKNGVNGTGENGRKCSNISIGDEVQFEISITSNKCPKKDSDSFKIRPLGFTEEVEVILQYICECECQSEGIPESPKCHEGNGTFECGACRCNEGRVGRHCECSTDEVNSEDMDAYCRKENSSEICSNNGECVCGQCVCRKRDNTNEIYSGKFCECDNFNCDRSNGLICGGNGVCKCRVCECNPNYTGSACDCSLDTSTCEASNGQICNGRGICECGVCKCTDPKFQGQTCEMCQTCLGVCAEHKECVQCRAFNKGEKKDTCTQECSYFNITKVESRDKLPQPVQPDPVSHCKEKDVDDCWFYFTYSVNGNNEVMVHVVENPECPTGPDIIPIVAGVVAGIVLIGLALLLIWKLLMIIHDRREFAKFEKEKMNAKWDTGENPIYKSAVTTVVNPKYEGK

| SMILES | Relative Potency |
| --- | --- |
| O=C(O)C[C@H](NC1CCN(C(=O)Cc2ccccc2)CC1)C(=O)N[C@@H](Cc1ccccc1)C(=O)N1CCCC1 [992.01] | 0 |
| CC(C)C[C@H](NC(=O)Cc1ccccc1)C(=O)N[C@@H](CC(=O)O)C(=O)N[C@@H](Cc1ccccc1)C(N)=O [997.12] (PhAc-Leu-Asp-Phe-NH2) | .48 |
| CC(C)C[C@H](NC(=O)c1ccccc1)C(=O)N[C@@H](CC(=O)O)C(=O)N[C@H](C(=O)N1CCC[C@H]1C(N)=O)C(C)C [896.35] | 16 |
| NC(=O)[C@H]1CCCN1C(=O)[C@H](Cc1ccccc1)NC(=O)[C@H](CC(=O)O)NC(=O)CCCCC1CCSS1 (stereo partly shown) [1056.09] | 1.1 |
| CC(C)C[C@H](NC(=O)Cc1ccccc1)C(=O)N[C@@H](CC(=O)O)C(=O)N[C@H](C(=O)N1CCC[C@@H]1C(N)=O)c1ccccc1 [896.69] (PhAc-LD[Phg][dP]-NH2) | 61 |
| O=C(O)CC(C(=O)N[C@@H](Cc1ccccc1)C(=O)N1CCCCC1)N1CC[C@H](NC(=O)Cc2ccccc2)C1=O (stereo partly shown) [1057.01] | .88 |
| CC(C)C[C@H](NC(=O)Cc1ccccc1)C(=O)N[C@@H](CC(=O)O)C(=O)N(C)[C@@H](Cc1ccccc1)C(=O)N1CCC[C@@H]1C(N)=O [1190.05] (PhAc-LD[NMeF][dP]-NH2) | 0 |
| NC(=O)[C@H]1CCCN1C(=O)[C@H](Cc1ccccc1)NC(=O)[C@H](CC(=O)O)NC(=O)[C@H](CC1CCCCC1)NC(=O)c1ccccc1 [896.31] (Bz-[Cha]DF[dP]-NH2) | 11 |
| CC(C)C[C@H](NC(=O)Cc1ccccc1)C(=O)N(C)[C@@H](CC(=O)O)C(=O)N[C@@H](Cc1ccccc1)C(=O)N1CCC[C@@H]1C(N)=O [1190.06] (PhAc-L[NMeD]F[dP]-NH2) | 0 |
| CC(C)C[C@H](NC(=O)Cc1ccccc1)C(=O)N[C@@H](CC(=O)O)C(=O)N1C(=O)N(Cc2ccccc2)C(=O)[C@@H]1Cc1ccccc1 [1047.08] | .38 |
| CC(C)C[C@H](NC(=O)Cc1ccccc1)C(=O)N[C@@H](CS(=O)(=O)O)C(=O)N[C@@H](Cc1ccccc1)C(=O)N1CCCCC1 [1026.06] (PhAc-Leu-[Cya]-Phe-Piperidide) | 0 |
| CC(C)C[C@H](NC(=O)Cc1ccccc1)C(=O)N[C@@H](CS)C(=O)N[C@@H](Cc1ccccc1)C(=O)N1CCC[C@@H]1C(N)=O [896.59] (PhAc-LCF[dP]-NH2) | 0 |

same assay, conditions: prodrug compounds, potency before enzymatic conversion to active form; relative to SEQ ID NO:3 = 1

| SMILES | Relative Potency |
| --- | --- |
| CCCCCCCCCC(=O)OC1CCN(C(=O)[C@H](Cc2ccccc2)NC(=O)[C@H](CC(=O)O)NC(=O)[C@H](CC(C)C)NC(=O)Cc2ccccc2)CC1 [1068.06] | .63 |
| CCN(CC)C(=O)COC(=O)C[C@H](NC(=O)[C@H](CC(C)C)NC(=O)Cc1ccccc1)C(=O)N[C@@H](Cc1ccccc1)C(=O)N1CCC[C@@H]1C(N)=O [1068.13] (PhAc-LD(X4)F[dP]-NH2) | 0 |
| CCCCCCCCCCCCCCOC(=O)C[C@H](NC(=O)[C@H](CC(C)C)NC(=O)Cc1ccccc1)C(=O)N[C@@H](Cc1ccccc1)C(=O)N1CCC[C@@H]1C(N)=O [1068.11] (PhAc-LD(X1)F[dP]-NH2) | 0 |
| CC(C)C[C@H](NC(=O)Cc1ccccc1)C(=O)N[C@@H](CC(=O)OCC(=O)OCc1ccccc1)C(=O)N[C@@H](Cc1ccccc1)C(=O)N1CCC[C@@H]1C(N)=O [1067.01] (PhAc-LD(X7)F[dP]-NH2) | .97 |
| CCCCCCCCCCCCOC(=O)C[C@H](NC(=O)[C@H](CC(C)C)NC(=O)Cc1ccccc1)C(=O)N[C@@H](Cc1ccccc1)C(=O)N1CCC[C@@H]1C(N)=O [1068.10] (PhAc-LD(X5)F[dP]-NH2) | 0 |
| CCCCCCCCCCCCCCCCCC(=O)OC1CCN(C(=O)[C@H](Cc2ccccc2)NC(=O)[C@H](CC(=O)O)NC(=O)[C@H](CC(C)C)NC(=O)Cc2ccccc2)CC1 [1068.05] | .63 |
| CCCCCCCCCCCCCCCCCCOC(=O)C[C@H](NC(=O)[C@H](CC(C)C)NC(=O)Cc1ccccc1)C(=O)N[C@@H](Cc1ccccc1)C(=O)N1CCC[C@@H]1C(N)=O [1068.12] (PhAc-LD(X8)F[dP]-NH2) | 0 |
